The source made the active and inactive calls. The calls are words filed in the database; no cut-off is given here.
Tests used:
PLC-PRF-5 = assay: Antiproliferative activity against human PLC/PRF/5 cells assessed as reduction in cell viability after 72 hrs by MTT assay; assay type: functional, cell-based; conditions: PLC-PRF-5, 72 h
[1] = target: Eukaryotic translation initiation factor 2-alpha kinase 1 (Homo sapiens) (UniProt Q9BQI3); assay: Inhibition of recombinant human HRI (140 to end residues) assessed as residual activity at 10 uM using RSRSRSRSRSRSRSR as substrate measured after 120 mins in presence of [gamma33P]ATP by scintillation counting method
[2] = target: Mitogen-activated protein kinase 12 (Homo sapiens) (UniProt P53778); assay: Inhibition of recombinant full-length human SAPK3 assessed as residual activity at 10 uM using myelin basic protein as substrate measured after 40 mins in presence of [gamma33P]ATP by scintillation counting method
[3] = target: Casein kinase I isoform delta (Homo sapiens) (UniProt P48730); assay: Inhibition of recombinant human CK1delta (1 to 294 residues) assessed as residual activity at 10 uM using KRRRALS(p)VASLPGL as substrate measured after 40 mins in presence of [gamma33P]ATP by scintillation counting method
[4] = target: Inhibitor of nuclear factor kappa-B kinase subunit epsilon (Homo sapiens) (UniProt Q14164); assay: Inhibition of recombinant full-length human IKKepsilon assessed as residual activity at 10 uM using casein as substrate measured after 40 mins in presence of [gamma33P]ATP by scintillation counting method
[5] = target: Calcium/calmodulin-dependent protein kinase type II subunit alpha (Homo sapiens) (UniProt Q9UQM7); assay: Inhibition of recombinant full-length human CaMK2alpha assessed as residual activity at 10 uM using calmodulin as substrate measured after 40 mins in presence of [gamma33P]ATP by scintillation counting method
[6] = target: Serine/threonine-protein kinase MRCK gamma (Homo sapiens) (UniProt Q6DT37); assay: Inhibition of recombinant human MRCKgamma assessed as residual activity at 10 uM using KKRNRTLTV as substrate measured after 40 mins in presence of [gamma33P]ATP by scintillation counting method
[7] = tested on: Tyrosine-protein kinase ABL1 (Homo sapiens), P00519 [Y253F]; assay: Inhibition of recombinant human ABL Y253F mutant (27 to end residues) assessed as residual activity at 10 uM using EAIYAAPFAKKK as substrate measured after 40 mins in presence of [gamma33P]ATP by scintillation counting method
[8] = target: Ribosomal protein S6 kinase alpha-1 (Homo sapiens) (UniProt Q15418); assay: Inhibition of recombinant full-length human Rsk1 assessed as residual activity at 10 uM using KKKNRTLSVA as substrate measured after 40 mins in presence of [gamma33P]ATP by scintillation counting method
SW-620 [9] = assay: Induction of apoptosis in human SW620 cells assessed as increase in cleaved PARP expression up to 200 nM measured after 48 hrs by Western blot analysis; assay type: functional, cell-based
Mus musculus = species on record: Mus musculus; assay: Inhibition of recombinant full-length mouse PI3K p110alpha/p65alpha (1 to 571 residues) assessed as residual activity at 10 uM using phosphatidylinositol-4, 5-bisphosphate as substrate measured after 40 mins by HTRF assay
[10] = target: Ephrin type-B receptor 1 (Homo sapiens) (UniProt P54762); assay: Inhibition of recombinant human EphB1 (564 to end residues) assessed as residual activity at 10 uM using KVEKIGEGTYGVVYK as substrate measured after 40 mins in presence of [gamma33P]ATP by scintillation counting method
[11] = target: NUAK family SNF1-like kinase 2 (Homo sapiens) (UniProt Q9H093); assay: Inhibition of recombinant full-length human NUAK2 assessed as residual activity at 10 uM using KKKVSRSGLYRSPSMPENLNRPR as substrate measured after 40 mins in presence of [gamma33P]ATP by scintillation counting method
[12] = tested on: Phosphorylase b kinase gamma catalytic chain, liver/testis isoform (Homo sapiens), P15735 [F290L]; assay: Inhibition of recombinant human PhKgamma2 F290L mutant (1 to 301 residues) assessed as residual activity at 10 uM using KKLNRTLSFAEPG as substrate measured after 40 mins in presence of [gamma33P]ATP by scintillation counting method
Tubulin (Homo sapiens) = Tubulin (Homo sapiens) (UniProt P68371+Q9H4B7+P0DPH7+P68366+Q13509+Q71U36+P04350+Q3ZCM7+P07437+P68363+Q9BQE3+Q6PEY2+Q13885+Q9BVA1+Q9BUF5); assay: Disruption of microtubule network in human SW620 cells assessed as microtubule condensation at 50 nM incubated for 18 hrs by FITC/DAPI staining-based confocal microscopic analysis; assay type: cell-based
[13] = target: Wee1-like protein kinase (Homo sapiens) (UniProt P30291); assay: Inhibition of human Wee1 (214 to end residues) using LSNLYHQGKFLQTFCGSPLYRRR as substrate measured after 40 mins in presence of [gamma33P]ATP by scintillation counting method; parameters: scale not given: the % may be the effect or the level left
HCT-116 = assay: Induction of apoptosis in human HCT116 cells assessed as increase in Bax expression up to 200 nM measured after 48 hrs by Western blot analysis; assay type: functional, cell-based
[14] = target: Mitogen-activated protein kinase kinase kinase kinase 2 (Homo sapiens) (UniProt Q12851); assay: Inhibition of recombinant human GCK assessed as residual activity at 10 uM using myelin basic protein as substrate measured after 40 mins in presence of [gamma33P]ATP by scintillation counting method
[15] = target: Testis-specific serine/threonine-protein kinase 3 (Homo sapiens) (UniProt Q96PN8); assay: Inhibition of recombinant full-length human TSSK3 assessed as residual activity at 10 uM using AMARAASAAALARRR as substrate measured after 40 mins in presence of [gamma33P]ATP by scintillation counting method
[16] = target: Histone-lysine N-methyltransferase EZH2 (Homo sapiens) (UniProt Q15910); assay: Inhibition of EZH2 (unknown origin) at 10 uM relative to control
[17] = target: Serine/threonine-protein kinase WNK4 (Homo sapiens) (UniProt Q96J92); assay: Inhibition of human WNK4 using myelin basic protein as substrate measured after 120 mins in presence of [gamma33P]ATP by scintillation counting method; parameters: scale not given: the % may be the effect or the level left
Homo sapiens = species on record: Homo sapiens; assay: Inhibition of recombinant human ARAF Y301D/Y302D mutant (273 to end residues) assessed as residual activity at 10 uM using myelin basic protein as substrate measured after 40 mins in presence of [gamma33P]ATP by scintillation counting method
SW-620 [18] = assay: Induction of apoptosis in human SW620 cells assessed as decrease in Bcl2 expression up to 200 nM measured after 48 hrs by Western blot analysis; assay type: functional, cell-based
[19] = target: Serine/threonine-protein kinase PAK 6 (Homo sapiens) (UniProt Q9NQU5); assay: Inhibition of recombinant human PAK6 (382 to end residues) assessed as residual activity at 10 uM using RRRLSFAEPG as substrate measured after 40 mins in presence of [gamma33P]ATP by scintillation counting method
Serine/threonine-protein kinase PAK 6 (Homo sapiens), sequence (Q9NQU5 whole entry, looked up): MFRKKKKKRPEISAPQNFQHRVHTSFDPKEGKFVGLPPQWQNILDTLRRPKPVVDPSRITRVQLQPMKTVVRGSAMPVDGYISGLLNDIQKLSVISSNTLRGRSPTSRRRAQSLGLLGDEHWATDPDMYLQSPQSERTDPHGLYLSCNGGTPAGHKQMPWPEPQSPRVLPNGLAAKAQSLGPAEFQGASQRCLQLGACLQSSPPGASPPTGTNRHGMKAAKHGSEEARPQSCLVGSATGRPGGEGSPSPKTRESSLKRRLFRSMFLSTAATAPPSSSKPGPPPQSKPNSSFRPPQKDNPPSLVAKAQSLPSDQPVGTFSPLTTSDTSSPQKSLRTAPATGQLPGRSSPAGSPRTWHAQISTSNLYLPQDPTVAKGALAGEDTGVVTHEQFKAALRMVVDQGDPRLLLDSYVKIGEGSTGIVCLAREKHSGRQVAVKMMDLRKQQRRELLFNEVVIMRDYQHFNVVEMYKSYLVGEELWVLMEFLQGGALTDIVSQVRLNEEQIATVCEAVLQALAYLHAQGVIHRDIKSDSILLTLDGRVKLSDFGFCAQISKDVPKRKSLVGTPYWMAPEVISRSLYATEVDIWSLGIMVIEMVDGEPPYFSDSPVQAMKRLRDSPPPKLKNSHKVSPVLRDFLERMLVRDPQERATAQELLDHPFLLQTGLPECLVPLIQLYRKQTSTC

Serine/threonine-protein kinase MRCK gamma (Homo sapiens), sequence (Q6DT37 whole entry): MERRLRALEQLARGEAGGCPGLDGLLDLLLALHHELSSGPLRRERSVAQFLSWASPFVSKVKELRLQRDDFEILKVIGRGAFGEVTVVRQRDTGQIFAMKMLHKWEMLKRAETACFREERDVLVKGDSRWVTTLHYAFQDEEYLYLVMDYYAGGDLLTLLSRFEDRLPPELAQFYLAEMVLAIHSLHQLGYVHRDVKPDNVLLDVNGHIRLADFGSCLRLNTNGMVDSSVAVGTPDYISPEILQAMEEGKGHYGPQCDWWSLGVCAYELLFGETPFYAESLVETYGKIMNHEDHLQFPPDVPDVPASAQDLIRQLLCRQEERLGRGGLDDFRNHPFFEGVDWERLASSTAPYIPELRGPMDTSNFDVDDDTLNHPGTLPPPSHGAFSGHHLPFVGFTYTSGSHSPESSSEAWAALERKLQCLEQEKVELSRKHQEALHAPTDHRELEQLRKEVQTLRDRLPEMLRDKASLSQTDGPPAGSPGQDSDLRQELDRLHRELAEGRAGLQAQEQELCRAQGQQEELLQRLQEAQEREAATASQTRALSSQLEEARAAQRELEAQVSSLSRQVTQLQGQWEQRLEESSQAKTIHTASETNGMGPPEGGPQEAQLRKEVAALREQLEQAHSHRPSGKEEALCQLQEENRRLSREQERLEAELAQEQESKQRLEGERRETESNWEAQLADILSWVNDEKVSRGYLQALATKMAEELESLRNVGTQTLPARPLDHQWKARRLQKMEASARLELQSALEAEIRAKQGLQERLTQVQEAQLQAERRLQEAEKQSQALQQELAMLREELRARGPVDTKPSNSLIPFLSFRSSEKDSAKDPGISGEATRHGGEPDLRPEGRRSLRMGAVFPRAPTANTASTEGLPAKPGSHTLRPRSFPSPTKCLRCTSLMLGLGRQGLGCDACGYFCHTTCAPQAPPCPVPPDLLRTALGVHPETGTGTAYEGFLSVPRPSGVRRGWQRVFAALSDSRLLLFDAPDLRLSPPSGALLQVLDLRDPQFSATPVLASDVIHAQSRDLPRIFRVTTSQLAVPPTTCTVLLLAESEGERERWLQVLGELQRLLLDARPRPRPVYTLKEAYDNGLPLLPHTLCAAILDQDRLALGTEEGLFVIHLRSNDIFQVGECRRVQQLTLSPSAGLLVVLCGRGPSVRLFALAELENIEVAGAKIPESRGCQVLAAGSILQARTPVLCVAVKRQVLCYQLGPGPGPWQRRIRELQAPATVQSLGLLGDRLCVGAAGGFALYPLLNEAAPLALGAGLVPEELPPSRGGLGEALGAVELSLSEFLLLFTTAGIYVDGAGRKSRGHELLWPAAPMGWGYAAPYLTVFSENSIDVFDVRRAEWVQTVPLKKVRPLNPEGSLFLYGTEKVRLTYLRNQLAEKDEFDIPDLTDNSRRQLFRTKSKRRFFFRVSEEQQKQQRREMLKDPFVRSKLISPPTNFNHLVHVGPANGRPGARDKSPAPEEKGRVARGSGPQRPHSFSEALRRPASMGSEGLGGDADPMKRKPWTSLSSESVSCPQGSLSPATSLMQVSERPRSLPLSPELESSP
Phosphorylase b kinase gamma catalytic chain, liver/testis isoform (Homo sapiens), P15735 [F290L], sequence (P15735 whole entry F290L, the tested form may be a part, canonical isoform): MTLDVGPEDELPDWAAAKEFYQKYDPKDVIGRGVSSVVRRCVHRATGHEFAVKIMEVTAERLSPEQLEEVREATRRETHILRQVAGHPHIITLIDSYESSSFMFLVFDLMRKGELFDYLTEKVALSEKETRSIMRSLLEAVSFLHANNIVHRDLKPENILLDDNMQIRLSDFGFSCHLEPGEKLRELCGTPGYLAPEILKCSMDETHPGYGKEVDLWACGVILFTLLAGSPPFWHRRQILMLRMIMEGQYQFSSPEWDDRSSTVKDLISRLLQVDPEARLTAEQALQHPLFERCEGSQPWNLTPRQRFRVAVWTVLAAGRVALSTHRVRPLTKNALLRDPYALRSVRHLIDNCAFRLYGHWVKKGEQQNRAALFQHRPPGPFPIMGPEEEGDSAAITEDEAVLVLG
Ribosomal protein S6 kinase alpha-1 (Homo sapiens), sequence (Q15418 whole entry): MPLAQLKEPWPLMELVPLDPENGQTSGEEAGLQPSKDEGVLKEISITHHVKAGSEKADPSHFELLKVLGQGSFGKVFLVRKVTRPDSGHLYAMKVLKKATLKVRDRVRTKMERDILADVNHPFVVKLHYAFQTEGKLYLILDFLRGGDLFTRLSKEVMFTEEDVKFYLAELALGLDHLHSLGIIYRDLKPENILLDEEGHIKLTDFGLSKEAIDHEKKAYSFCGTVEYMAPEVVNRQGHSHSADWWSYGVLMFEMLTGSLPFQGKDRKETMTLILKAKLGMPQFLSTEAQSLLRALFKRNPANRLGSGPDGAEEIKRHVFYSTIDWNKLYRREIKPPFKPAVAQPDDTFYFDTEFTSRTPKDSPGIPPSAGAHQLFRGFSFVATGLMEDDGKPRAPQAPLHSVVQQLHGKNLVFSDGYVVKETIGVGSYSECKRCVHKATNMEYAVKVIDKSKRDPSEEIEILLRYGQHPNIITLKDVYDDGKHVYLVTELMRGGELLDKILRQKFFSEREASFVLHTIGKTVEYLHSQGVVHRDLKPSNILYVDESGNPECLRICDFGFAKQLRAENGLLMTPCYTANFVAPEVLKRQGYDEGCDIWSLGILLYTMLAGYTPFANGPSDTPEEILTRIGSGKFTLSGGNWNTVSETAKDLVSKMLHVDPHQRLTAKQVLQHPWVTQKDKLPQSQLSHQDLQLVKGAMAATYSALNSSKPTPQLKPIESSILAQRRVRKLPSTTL
Inhibitor of nuclear factor kappa-B kinase subunit epsilon (Homo sapiens), sequence (Q14164 whole entry): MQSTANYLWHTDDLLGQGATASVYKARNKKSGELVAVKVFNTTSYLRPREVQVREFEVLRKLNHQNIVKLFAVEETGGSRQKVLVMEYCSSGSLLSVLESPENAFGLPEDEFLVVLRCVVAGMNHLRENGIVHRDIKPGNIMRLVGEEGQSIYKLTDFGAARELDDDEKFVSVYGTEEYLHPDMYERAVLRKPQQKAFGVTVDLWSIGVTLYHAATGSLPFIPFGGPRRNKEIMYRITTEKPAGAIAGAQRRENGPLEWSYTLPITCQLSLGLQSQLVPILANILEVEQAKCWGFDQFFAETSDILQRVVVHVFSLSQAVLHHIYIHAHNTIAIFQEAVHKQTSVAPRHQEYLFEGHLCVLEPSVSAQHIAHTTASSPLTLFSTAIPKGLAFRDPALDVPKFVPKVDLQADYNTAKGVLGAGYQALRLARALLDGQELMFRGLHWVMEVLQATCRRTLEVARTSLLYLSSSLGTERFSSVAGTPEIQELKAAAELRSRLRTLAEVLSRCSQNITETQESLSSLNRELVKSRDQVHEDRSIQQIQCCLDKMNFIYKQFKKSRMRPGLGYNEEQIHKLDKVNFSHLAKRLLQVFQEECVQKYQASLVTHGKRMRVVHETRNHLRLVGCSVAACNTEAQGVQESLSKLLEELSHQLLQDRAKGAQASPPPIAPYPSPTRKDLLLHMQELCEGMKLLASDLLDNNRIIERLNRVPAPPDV
Mitogen-activated protein kinase kinase kinase kinase 2 (Homo sapiens), sequence (Q12851 whole entry): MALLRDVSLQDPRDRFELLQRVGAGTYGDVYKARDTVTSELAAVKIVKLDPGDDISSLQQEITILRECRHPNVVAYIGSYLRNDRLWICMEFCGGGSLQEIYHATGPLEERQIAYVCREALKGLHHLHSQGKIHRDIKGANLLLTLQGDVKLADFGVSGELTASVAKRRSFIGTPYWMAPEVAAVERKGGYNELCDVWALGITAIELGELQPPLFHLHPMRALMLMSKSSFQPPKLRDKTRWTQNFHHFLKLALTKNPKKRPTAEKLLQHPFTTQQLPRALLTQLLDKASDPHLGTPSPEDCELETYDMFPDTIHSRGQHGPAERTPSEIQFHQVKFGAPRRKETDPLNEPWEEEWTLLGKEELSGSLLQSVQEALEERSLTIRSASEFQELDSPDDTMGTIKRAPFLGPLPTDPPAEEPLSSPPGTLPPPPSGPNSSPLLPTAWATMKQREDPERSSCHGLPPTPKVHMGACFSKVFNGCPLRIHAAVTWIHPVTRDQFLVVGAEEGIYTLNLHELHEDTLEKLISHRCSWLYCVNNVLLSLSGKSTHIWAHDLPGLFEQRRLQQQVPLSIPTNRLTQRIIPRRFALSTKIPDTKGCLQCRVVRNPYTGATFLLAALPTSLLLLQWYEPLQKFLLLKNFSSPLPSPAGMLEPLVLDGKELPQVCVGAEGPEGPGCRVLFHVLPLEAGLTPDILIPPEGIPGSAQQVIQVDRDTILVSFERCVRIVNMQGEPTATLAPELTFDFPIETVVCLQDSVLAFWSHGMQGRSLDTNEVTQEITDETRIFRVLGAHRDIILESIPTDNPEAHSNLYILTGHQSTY

SMILES: Cc1cc(C)c(CNc2nc(Cl)nc3c2ncn3C2CCCC2)c(=O)[nH]1
- IC50 (PLC-PRF-5): 286 nM
- Activity [1]: 102%
- Activity [2]: 96.5%
- Activity [3]: 103%
- Activity [4]: 98.5%
- Activity [5]: 92%
- Activity [6]: 122%
- Activity [7]: 109%
- Activity [8]: 112%
- Activity (SW-620 [9]): Active
- Activity (Mus musculus): 104%
- Activity [10]: 104%
- Activity [11]: 114%
- Activity [12]: 92%
- Activity (Tubulin (Homo sapiens)): Active
- Activity [13]: 84.5%
- Activity (HCT-116): Active
- Activity [14]: 100%
- Activity [15]: 124%
- inhibition [16]: -9%
- Activity [17]: 98.5%
- Activity (Homo sapiens): 122%
- Activity (SW-620 [18]): Active
- Activity [19]: 101%

Reference: ChEMBL document CHEMBL4311992, “Discovery of 3-(((9H-purin-6-yl)amino)methyl)-4,6-dimethylpyridin-2(1H)-one derivatives as novel tubulin polymerization inhibitors for treatment of cancer” (Eur J Med Chem, 2019)
